In the experiment the test system is M109 cells. Nature of the experiment: Survival of mice with M109 lung tumor implants, folate-MDP therapy. The experiment is classed as in vivo. Particulars: female Balb/c mice, M109 cells i.p.; folate-MDP 15 nmoles/kg, IL-2 5,000 IU/dose, IFN-α 25,000 U/dose; injections on days 7, 8, 9, 11, 14. Here is the method:
Female Balb/c mice were injected on day 0 with 5×10^5 M109 cells, a syngeneic lung cancer cell line that expresses high levels of the folate receptor. In an effort to reduce the time required to obtain long-term survival data, the tumor cells were implanted intraperitoneally close to the liver. Cancer loci were then allowed to attach and grow. The animals were then injected with PBS (control) or were co-injected with folate-muramyl dipeptide (MDP) (15 nmoles/kg), IL-2 (5,000 IU/dose), and IFN-α (25,000 U/dose) on days 7, 8, 9, 11, and 14 after tumor cell implantation. Folate was conjugated to MDP via a gamma carboxyl-linked ethylene diamine bridge. Additional animals were injected with 80 nmoles/kg MDP, 15 nmoles/kg folate-MDP, or 80 nmoles/kg MDP and IL-2 and IFN-α at the concentrations specified above. The efficacy of this immunotherapy was evaluated by monitoring survival as a function of time of folate-MDP treated mice compared to control animals.

Turning to folate-muramyl dipeptide [folate-MDP], the “effect on long-term survival of tumor-bearing mice” value is on record as “negligible effect”.
